This passage reports IC50 results from BindingDB's records for doi:10.1016/j.bmcl.2003.11.079 (Millennium Pharmaceuticals, 2004).

In general, IC50 refers to the concentration at which inhibition is half-maximal. The low end stands for higher potency, the high end for lower potency.

The assay deals with Trypsin. The experiment in a line: Inhibitory concentration against trypsin was determined.

`NS(=O)(=O)c1ccccc1-c1ccc(C(=O)Nc2ccccc2C(=O)Nc2ccc(Br)cn2)cc1` [2'-Sulfamoyl-biphenyl-4-carboxylic acid [2-(5-bromo-pyridin-2-ylcarbamoyl)-phenyl]-amide] yielded an IC50 above 10 µM.
